For 16 molecules, IC50 results are on record in patent publication US8361998B2, “Compounds and their use as IKACh blockers” (AstraZeneca AB, priority 2010, dated 2013).

One experiment addresses T1, human cardiac ion channel proteins hKir3.1/Kir3.4 (Homo sapiens, UniProt P48544+P48549).
T1 construct: expressed in transfected cells
T1 sequence (P48549 1-501): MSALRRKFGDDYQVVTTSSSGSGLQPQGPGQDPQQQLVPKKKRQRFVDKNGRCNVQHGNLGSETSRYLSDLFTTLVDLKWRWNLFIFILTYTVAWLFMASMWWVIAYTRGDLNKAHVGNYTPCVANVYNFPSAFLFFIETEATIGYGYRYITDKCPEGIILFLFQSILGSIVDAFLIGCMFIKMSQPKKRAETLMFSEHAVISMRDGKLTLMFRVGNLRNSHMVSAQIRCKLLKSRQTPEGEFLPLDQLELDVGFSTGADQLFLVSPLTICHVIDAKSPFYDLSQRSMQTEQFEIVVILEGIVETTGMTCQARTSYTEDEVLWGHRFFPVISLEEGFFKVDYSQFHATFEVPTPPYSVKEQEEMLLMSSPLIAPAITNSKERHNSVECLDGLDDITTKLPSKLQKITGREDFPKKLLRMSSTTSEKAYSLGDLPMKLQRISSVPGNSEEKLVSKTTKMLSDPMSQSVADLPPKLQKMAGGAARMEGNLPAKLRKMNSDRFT
T1 sequence (P48544 1-419): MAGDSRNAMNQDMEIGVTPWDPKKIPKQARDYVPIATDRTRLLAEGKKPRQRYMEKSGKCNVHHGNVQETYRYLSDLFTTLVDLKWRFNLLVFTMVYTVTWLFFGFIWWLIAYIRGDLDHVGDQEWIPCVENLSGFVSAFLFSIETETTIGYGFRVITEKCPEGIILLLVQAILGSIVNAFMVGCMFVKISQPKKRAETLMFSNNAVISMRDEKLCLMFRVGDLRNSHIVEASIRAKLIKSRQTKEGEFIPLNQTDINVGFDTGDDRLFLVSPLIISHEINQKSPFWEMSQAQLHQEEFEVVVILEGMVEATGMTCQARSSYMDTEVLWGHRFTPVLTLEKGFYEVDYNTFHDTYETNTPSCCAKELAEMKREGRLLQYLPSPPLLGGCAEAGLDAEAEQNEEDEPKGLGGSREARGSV
Put plainly: Atomic Absorption Screening (AAS) Rb efflux assay of hKir3.1/Kir3.4 block, carbachol/high K+ stimulated, 10-pt or 7-pt CR. Particulars: 7-pt CR (0.037 to 27 μmol/L), AAS Rb efflux, CHO-K1 cells expressing hKir3.1/Kir3.4; mean of >3 replicates; read-out: IKACh IC50 7-pt CR, AAS. The format is cell-based. The procedure, abridged: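 CHO-K1 cells stably co-expressing human Kir3.1/Kir3.4 were Rb-loaded for 3 h at 37° C, preincubated with compound 5 min at RT, then stimulated 10 min with 10 μM carbachol plus 20 mM KCl (final). Supernatant Rb was measured by atomic absorption. Compounds ran at 0.003–67 μmol/L (10-pt) or 0.037–27 μmol/L (7-pt), threefold dilutions; IC50s are means of >4 or >3 replicates respectively.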
Broadly, the IC50 is the concentration that gives 50% inhibition. Turning to `CC(C)[C@@H](CN1CCCCC1)N(C)C(=O)c1ccc(Cl)cc1F` [Example 16.31, 4-Chloro-2-fluoro-N-methyl-N-[(1S)-2-methyl-1-(piperidin-1-ylmethyl)propyl]-benzamide], the IC50 amounted to 2.4 µM. Still for that read-out and setting: next, `Cc1ccc(C(=O)N(C)[C@H](CN2CC[C@H](O)C2)C(C)C)cc1` [Example 16.43, N-[(1S)-1-{[(3S)-3-Hydroxypyrrolidin-1-yl]methyl}-2-methylpropyl]-N,4-dimethylbenzamide]: 5.5 µM. In the case of `CC(C)[C@@H](CN1CCCC1)N(C)C(=O)c1ccc(F)cc1C(F)(F)F` [Example 16.23, (S)-4-Fluoro-N-methyl-N-(3-methyl-1-(pyrrolidin-1-yl)butan-2-yl)-2-(trifluoromethyl)benzamide], the IC50 came to 6.7 µM. Regarding `CC(C)[C@@H](CN1CCCCC1)N(C)C(=O)c1ccc(Br)c(F)c1` [Example 16.36, (S)-4-Bromo-3-fluoro-N-methyl-N-(3-methyl-1-(piperidin-1-yl)butan-2-yl)benzamide], the IC50 turned out to be 11 µM.

Still in this experiment, the particulars now being: 10-pt CR (0.003 to 67 μmol/L), AAS Rb efflux, CHO-K1 cells expressing hKir3.1/Kir3.4; mean of >4 replicates; read-out: IKACh IC50 10-pt CR, AAS.
As to `CC(C)[C@@H](CN1CC(F)C1)N(C)C(=O)c1ccc(F)c(Cl)c1` [Example 1.8, (S)-3-Chloro-4-fluoro-N-(1-(3-fluoroazetidin-1-yl)-3-methylbutan-2-yl)-N-methylbenzamide], the IC50 turned out to be 11 µM. On the same count and under the same terms, next, `CCN(C(=O)c1ccc(Cl)cc1)[C@H](CN1CCC1)C(C)C` [Example 11, (S)—N-(1-(Azetidin-1-yl)-3-methylbutan-2-yl)-4-chloro-N-ethylbenzamide]: 5.6 µM; `CCC[C@@H](CN1CC[C@H](O)C1)N(C)C(=O)c1ccc(Cl)cc1` [Example 46.2, 4-Chloro-N—((S)-1-((S)-3-hydroxypyrrolidin-1-yl)pentan-2-yl)-N-methylbenzamide]: 5.5 µM. On to `CN(C(=O)c1ccccc1)[C@@H](CN1CC(O)C1)C1CCC1` [Example 35.14, N-[(1R)-1-Cyclobutyl-2-(3-hydroxyazetidin-1-yl)ethyl]-N-methylbenzamide], for which the IC50 came to 13 µM. Still for that read-out and setting: next, `CC(C)[C@@H](CN1CCC1)N(C)C(=O)c1cccc(Cl)c1` [Example 1.13, (S)-N-(1-(Azetidin-1-yl)-3-methylbutan-2-yl)-3-chloro-N-methylbenzamide]: 12 µM; `CN(C(=O)c1ccccc1)[C@H](CN1CC(O)C1)C1CCCCC1` [Example 36.8, N-[(1S)-1-Cyclohexyl-2-(3-hydroxyazetidin-1-yl)ethyl]-N-methylbenzamide]: 1.1 µM. For the molecule `CC[C@H](C)[C@@H](CN1CC(O)C1)N(C)C(=O)c1ccccc1` [Example 29.4, N-((2S,3S)-1-(3-Hydroxyazetidin-1-yl)-3-methylpentan-2-yl)-N-methylbenzamide], the IC50 is 12 µM. Still for that read-out and setting: next, `CCC[C@@H](CN1CC(OC)C1)N(C)C(=O)c1ccc(Cl)cc1` [Example 31.2, (S)-4-Chloro-N-(1-(3-methoxyazetidin-1-yl)pentan-2-yl)-N-methylbenzamide]: 5.9 µM. Still for that read-out and setting: next, `CC(C)[C@@H](CN1CC(C)(O)C1)N(C)C(=O)c1ccc(F)c(C(F)(F)F)c1` [Example 9.8, (S)-4-Fluoro-N-(1-(3-hydroxy-3-methylazetidin-1-yl)-3-methyl-butan-2-yl)-N-methyl-3-(trifluoromethyl)benzamide]: 5.3 µM; `CC(C)[C@@H](CN1CC(C)(O)C1)N(C)C(=O)c1ccc(Cl)cc1` [Example 9.7, (S)-4-Chloro-N-(1-(3-hydroxy-3-methylazetidin-1-yl)-3-methyl-butan-2-yl)-N-methylbenzamide]: 8.6 µM. `CC(C)[C@@H](CN1CC(F)C1)N(C)C(=O)c1ccc(Cl)cc1` [Example 1.6, (S)-4-Chloro-N-(1-(3-fluoroazetidin-1-yl)-3-methylbutan-2-yl)-N-methylbenzamide]: the IC50 worked out at 6.7 µM. Same read-out and setting: next, `CCC[C@@H](CN1CC(OCC)C1)N(C)C(=O)c1ccc(Cl)cc1` [Example 31.1, (S)-4-Chloro-N-(1-(3-ethoxyazetidin-1-yl)pentan-2-yl)-N-methylbenzamide]: 0.43 µM.
